Among the data in PMC9784924, “Antiviral Activity and Crystal Structures of HIV-1 gp120 Antagonists” (International Journal of Molecular Sciences, 2022) are IC50 values, retold here.

Read-outs that look alike come from different tables or passages of the source.

This assay addresses T1, HIV-1 reverse transcriptase (RT) (HIV-1 M:B_HXB2R, UniProt P04585).
T1 construct: gene gag-pol; enzyme of the Colorimetric Reverse Transcriptase Assay kit (Roche); cut from the Gag-Pol polyprotein; with p51 RT
The format is biochemical. Particulars: n = 2. The text has this:
Colorimetric Reverse Transcriptase Assay (Roche) on HIV-1 reverse transcriptase (RT)

The compound `CC1(C)CC(NC(=O)C(=O)Nc2ccc(Cl)cc2)CC(C)(C)N1` [NBD-556, reference compound] returned an IC50 (control) of over 300 µM.
`NC[C@H](NC(=O)c1ccc(-c2ccc(C(F)(F)F)cn2)[nH]1)c1ncc(CO)s1` [NBD-14204] displayed an IC50 of 8.3 ± 1.2 µM.
The same measure, in the same setting: then `NC[C@H](NC(=O)c1ccc(-c2cc(F)c(Cl)c(F)c2)[nH]1)c1nc(CO)c(CO)s1` [NBD-14208], with 5 ± 0.5 µM.
